The values that follow come from publication PMC5218480 (PLoS ONE, 2017).

For this test, the system named is MV-4-11 cells. The test is described as follows: Gene expression microarray analysis (Affymetrix PrimeView) and GSEA. It counts as cell-based, human. Details: RFU PODN (11730768_x_at) / Fold change /veh PODN (11730768_x_at) / RFU LINC00158 (11744669_a_at) / Fold change /veh LINC00158 (11744669_a_at) / RFU DUSP10 (11751237_a_at) / Fold change /veh DUSP10 (11751237_a_at) / RFU ID3 (11757404_x_at) / Fold change /veh ID3 (11757404_x_at) / RFU PLEKHG5 (11737974_s_at) / Fold change /veh PLEKHG5 (11737974_s_at) / RFU LRRC4B (11730491_at) / Fold change /veh LRRC4B (11730491_at) / RFU GIMAP4 (11747438_a_at) / Fold change /veh GIMAP4 (11747438_a_at) / RFU KRT8 (11758183_x_at) / Fold change /veh KRT8 (11758183_x_at) / RFU CNN1 (11734310_a_at) / Fold change /veh CNN1 (11734310_a_at) / RFU VPS37D (11726825_at) / Fold change /veh VPS37D (11726825_at) / RFU C10orf10 (11716522_x_at) / Fold change /veh C10orf10 (11716522_x_at) / RFU KIR2DL2 /// KIR2DL4 /// KIR2DL5A /// KIR2DL5B /// KIR2DS1 /// KIR2DS2 /// KIR2DS3 /// KIR2DS4 /// KIR3DL3 /// KIR3DL3 /// KIR3DS1 (11738374_at) / Fold change /veh KIR2DL2 /// KIR2DL4 /// KIR2DL5A /// KIR2DL5B /// KIR2DS1 /// KIR2DS2 /// KIR2DS3 /// KIR2DS4 /// KIR3DL3 /// KIR3DL3 /// KIR3DS1 (11738374_at) / RFU C1QL1 (11718748_at) / Fold change /veh C1QL1 (11718748_at) / RFU TMPRSS4 (11747572_a_at) / Fold change /veh TMPRSS4 (11747572_a_at) / RFU HAMP (11756126_x_at) / Fold change /veh HAMP (11756126_x_at) / RFU RNFT2 (11725882_a_at) / Fold change /veh RNFT2 (11725882_a_at) / RFU NR4A2 (11747474_a_at) / Fold change /veh NR4A2 (11747474_a_at) / RFU ABCC12 (11746883_a_at) / Fold change /veh ABCC12 (11746883_a_at) / RFU TMEM136 (11760407_x_at) / Fold change /veh TMEM136 (11760407_x_at) / RFU CLDN22 /// WWC2 (11732394_at) / Fold change /veh CLDN22 /// WWC2 (11732394_at) / RFU HLA-DPB1 (11760878_x_at) / Fold change /veh HLA-DPB1 (11760878_x_at) / RFU SPINT1 (11716480_a_at) / Fold change /veh SPINT1 (11716480_a_at) / RFU GAP43 (11754022_s_at) / Fold change /veh GAP43 (11754022_s_at) / RFU A4GNT (11735810_at) / Fold change /veh A4GNT (11735810_at) / RFU PRB3 (11715151_x_at) / Fold change /veh PRB3 (11715151_x_at) / RFU TUBB4B (11761932_at) / Fold change /veh TUBB4B (11761932_at) / RFU CAPN14 (11732068_a_at) / Fold change /veh CAPN14 (11732068_a_at) / RFU TMCC2 (11721928_a_at) / Fold change /veh TMCC2 (11721928_a_at) / RFU IRGQ (11745062_a_at) / Fold change /veh IRGQ (11745062_a_at) / RFU FAM174B (11720279_a_at) / Fold change /veh FAM174B (11720279_a_at) / RFU TMPRSS4 (11748680_a_at) / Fold change /veh TMPRSS4 (11748680_a_at) / RFU FAM212B (11763350_a_at) / Fold change /veh FAM212B (11763350_a_at) / RFU PLEKHG5 (11743358_a_at) / Fold change /veh PLEKHG5 (11743358_a_at) / RFU ZSCAN30 (11745921_a_at) / Fold change /veh ZSCAN30 (11745921_a_at) / RFU CMKLR1 (11741424_a_at) / Fold change /veh CMKLR1 (11741424_a_at) / RFU LOC101060620 /// MAPK8IP1 (11723275_at) / Fold change /veh LOC101060620 /// MAPK8IP1 (11723275_at) / RFU SPTSSB (11747773_x_at) / Fold change /veh SPTSSB (11747773_x_at) / RFU PRSS12 (11739890_at) / Fold change /veh PRSS12 (11739890_at) / RFU BIN1 (11741810_x_at) / Fold change /veh BIN1 (11741810_x_at) / RFU WNT11 (11732464_a_at) / Fold change /veh WNT11 (11732464_a_at) / RFU C10orf10 (11716521_a_at) / Fold change /veh C10orf10 (11716521_a_at) / RFU C5orf56 (11738089_at) / Fold change /veh C5orf56 (11738089_at) / RFU CYB561 (11721691_x_at) / Fold change /veh CYB561 (11721691_x_at) / RFU ANKRD19P (11752326_a_at) / Fold change /veh ANKRD19P (11752326_a_at) / RFU OR2T12 /// OR2T33 /// OR2T8 (11738714_s_at) / Fold change /veh OR2T12 /// OR2T33 /// OR2T8 (11738714_s_at) / RFU VCAN (11748164_a_at) / Fold change /veh VCAN (11748164_a_at) / RFU JSRP1 (11732532_at) / Fold change /veh JSRP1 (11732532_at) / RFU KRTAP10-11 (11738290_x_at) / Fold change /veh KRTAP10-11 (11738290_x_at) / RFU MYO3A (11730013_a_at) / Fold change /veh MYO3A (11730013_a_at) / RFU EBF3 (11725865_a_at) / Fold change /veh EBF3 (11725865_a_at) / RFU CAMK2N1 (11719241_x_at) / Fold change /veh CAMK2N1 (11719241_x_at) / RFU C5orf56 (11738088_a_at) / Fold change /veh C5orf56 (11738088_a_at) / RFU OLFML3 (11715873_a_at) / Fold change /veh OLFML3 (11715873_a_at) / RFU LOC100653217 /// NTM (11731650_a_at) / Fold change /veh LOC100653217 /// NTM (11731650_a_at) / RFU MAPK11 (11762145_a_at) / Fold change /veh MAPK11 (11762145_a_at) / RFU FIZ1 (11724087_x_at) / Fold change /veh FIZ1 (11724087_x_at) / RFU OASL (11726364_x_at) / Fold change /veh OASL (11726364_x_at) / RFU SOX15 (11748057_x_at) / Fold change /veh SOX15 (11748057_x_at) / RFU CD79A (11719716_a_at) / Fold change /veh CD79A (11719716_a_at) / RFU HIST1H1D (11736915_at) / Fold change /veh HIST1H1D (11736915_at) / RFU CASKIN2 (11723855_a_at) / Fold change /veh CASKIN2 (11723855_a_at) / RFU LOC730098 (11760151_x_at) / Fold change /veh LOC730098 (11760151_x_at) / RFU OR4N2 (11742367_at) / Fold change /veh OR4N2 (11742367_at) / RFU PRRT2 (11749266_a_at) / Fold change /veh PRRT2 (11749266_a_at) / RFU SNX32 (11753110_a_at) / Fold change /veh SNX32 (11753110_a_at) / RFU CDHR5 (11726645_a_at) / Fold change /veh CDHR5 (11726645_a_at) / RFU RCAN1 (11760418_a_at) / Fold change /veh RCAN1 (11760418_a_at) / RFU FAM167A (11723789_a_at) / Fold change /veh FAM167A (11723789_a_at) / RFU FAM26E (11764081_at) / Fold change /veh FAM26E (11764081_at) / RFU ISYNA1 (11749810_s_at) / Fold change /veh ISYNA1 (11749810_s_at) / RFU ACY1 (11761880_at) / Fold change /veh ACY1 (11761880_at) / RFU 11764098_at / Fold change /veh 11764098_at / RFU SAMD14 (11745864_x_at) / Fold change /veh SAMD14 (11745864_x_at) / RFU NPB (11741838_a_at) / Fold change /veh NPB (11741838_a_at) / RFU TMPRSS6 (11731388_a_at) / Fold change /veh TMPRSS6 (11731388_a_at) / RFU KRTAP10-2 (11738614_at) / Fold change /veh KRTAP10-2 (11738614_at) / RFU ARHGAP8 /// PRR5-ARHGAP8 (11727945_x_at) / Fold change /veh ARHGAP8 /// PRR5-ARHGAP8 (11727945_x_at) / RFU KRTAP5-7 /// NADSYN1 (11734609_at) / Fold change /veh KRTAP5-7 /// NADSYN1 (11734609_at) / RFU RASL12 (11751679_a_at) / Fold change /veh RASL12 (11751679_a_at) / RFU CDKN2B (11736163_a_at) / Fold change /veh CDKN2B (11736163_a_at) / RFU PRF1 (11729649_at) / Fold change /veh PRF1 (11729649_at) / RFU, ZNF638 /// ZNF638-IT1 / Fold change vs veh, ZNF638 /// ZNF638-IT1 / RFU, PANK3 / Fold change vs veh, PANK3 / RFU, SH3YL1 / Fold change vs veh, SH3YL1 / RFU, ZEB2 / Fold change vs veh, ZEB2 / RFU, NRIP1 / Fold change vs veh, NRIP1 / RFU, PTTG1IP / Fold change vs veh, PTTG1IP / RFU, CAPN2 / Fold change vs veh, CAPN2 / RFU, MED14 / Fold change vs veh, MED14 / RFU, SNORA58 / Fold change vs veh, SNORA58 / RFU, C1orf63 / Fold change vs veh, C1orf63 / RFU, LRRFIP1 / Fold change vs veh, LRRFIP1 / RFU, NDUFAF7 / Fold change vs veh, NDUFAF7 / RFU, SLC12A2 / Fold change vs veh, SLC12A2 / RFU, IBTK / Fold change vs veh, IBTK / RFU, ESF1 / Fold change vs veh, ESF1 / Fold change vs veh, TMEM50B / RFU, TAOK1 / Fold change vs veh, TAOK1 / RFU, ACBD3 / Fold change vs veh, ACBD3 / RFU, TMA16 / Fold change vs veh, TMA16 / RFU, RWDD3 / Fold change vs veh, RWDD3 / RFU, BCAT1 / Fold change vs veh, BCAT1 / RFU, EDEM3 / Fold change vs veh, EDEM3 / RFU, TMEM33 / Fold change vs veh, TMEM33 / RFU, WDR75 / Fold change vs veh, WDR75 / RFU, AHCTF1 / Fold change vs veh, AHCTF1 / RFU, TFRC / Fold change vs veh, TFRC / RFU, ZDHHC17 / Fold change vs veh, ZDHHC17 / RFU, NOM1 / Fold change vs veh, NOM1 / RFU, ARL8B / Fold change vs veh, ARL8B / RFU, ZBTB11 / Fold change vs veh, ZBTB11 / RFU, TAMM41 / Fold change vs veh, TAMM41 / RFU, KIAA1704 /// LOC100996395 / Fold change vs veh, KIAA1704 /// LOC100996395 / RFU, ING1 / Fold change vs veh, ING1 / RFU, TRMT61B / Fold change vs veh, TRMT61B / RFU, FUBP3 / Fold change vs veh, FUBP3 / RFU, TP53 / Fold change vs veh, TP53 / RFU, TNKS2 / Fold change vs veh, TNKS2 / RFU, ZFP14 / Fold change vs veh, ZFP14 / RFU, ACTR2 / Fold change vs veh, ACTR2 / RFU, PPP3R1 / Fold change vs veh, PPP3R1 / RFU, PIK3R1 / Fold change vs veh, PIK3R1 / RFU, HNRNPA1 / Fold change vs veh, HNRNPA1 / RFU, RNF170 / Fold change vs veh, RNF170 / RFU, ZNF28 / Fold change vs veh, ZNF28 / RFU, RNGTT / Fold change vs veh, RNGTT / RFU, OGT / Fold change vs veh, OGT / RFU, BRD1 / Fold change vs veh, BRD1 / RFU, MARS / Fold change vs veh, MARS / RFU, ZNF655 / Fold change vs veh, ZNF655 / RFU, FAHD1 / Fold change vs veh, FAHD1 / RFU, BDP1 / Fold change vs veh, BDP1 / RFU, LRRCC1 / Fold change vs veh, LRRCC1 / RFU, ARID1A / Fold change vs veh, ARID1A / RFU, ZNF146 / Fold change vs veh, ZNF146 / RFU, ZNF330 / Fold change vs veh, ZNF330 / RFU, GPN3 / Fold change vs veh, GPN3 / RFU, C9orf123 / Fold change vs veh, C9orf123 / RFU, N4BP2L2 / Fold change vs veh, N4BP2L2 / RFU, ARFIP1 / Fold change vs veh, ARFIP1 / RFU, FAM179B / Fold change vs veh, FAM179B / RFU, BCL10 / Fold change vs veh, BCL10 / RFU, UHRF1BP1L / Fold change vs veh, UHRF1BP1L / RFU, BET1 / Fold change vs veh, BET1 / RFU, CNOT2 / Fold change vs veh, CNOT2 / RFU, ZNF268 / Fold change vs veh, ZNF268 / Fold change vs veh, ZNF507 / RFU, DGCR2 / Fold change vs veh, DGCR2 / RFU, WDSUB1 / Fold change vs veh, WDSUB1 / Fold change vs veh, HSP90B1 /// MIR3652 / RFU, ADSS / Fold change vs veh, ADSS / RFU, GK / Fold change vs veh, GK / RFU, ZNF148 / Fold change vs veh, ZNF148 / RFU, TAF9 / Fold change vs veh, TAF9 / RFU, SLC1A5 / Fold change vs veh, SLC1A5 / RFU, SLMO2 / Fold change vs veh, SLMO2 / RFU, ABCC4 / Fold change vs veh, ABCC4 / RFU, LOC101060439 /// RAP1B / Fold change vs veh, LOC101060439 /// RAP1B / RFU, RFX7 / Fold change vs veh, RFX7 / RFU, GTPBP10 / Fold change vs veh, GTPBP10 / RFU, CNEP1R1 / Fold change vs veh, CNEP1R1 / RFU, BIVM-ERCC5 /// ERCC5 / Fold change vs veh, BIVM-ERCC5 /// ERCC5 / RFU, ILF3 / Fold change vs veh, ILF3 / RFU 11762660_at / Fold change /veh 11762660_at / RFU VCAN (11757783_s_at) / Fold change /veh VCAN (11757783_s_at) / RFU DDX43 (11728927_at) / Fold change /veh DDX43 (11728927_at) / RFU KRT8 (11758188_x_at) / Fold change /veh KRT8 (11758188_x_at) / RFU NKD1 (11759106_at) / Fold change /veh NKD1 (11759106_at) / RFU SRD5A1 (11742802_a_at) / Fold change /veh SRD5A1 (11742802_a_at) / RFU TPSAB1 /// TPSB2 (11721975_s_at) / Fold change /veh TPSAB1 /// TPSB2 (11721975_s_at) / RFU GSTM3 (11746129_a_at) / Fold change /veh GSTM3 (11746129_a_at) / RFU IL23R (11737362_x_at) / Fold change /veh IL23R (11737362_x_at) / RFU TMEM51 (11727254_a_at) / Fold change /veh TMEM51 (11727254_a_at) / RFU PIWIL2 (11732686_x_at) / Fold change /veh PIWIL2 (11732686_x_at) / RFU ORM1 (11744905_x_at) / Fold change /veh ORM1 (11744905_x_at) / RFU CCDC152 (11743942_at) / Fold change /veh CCDC152 (11743942_at) / RFU ECM1 (11717891_a_at) / Fold change /veh ECM1 (11717891_a_at) / RFU IL23R (11748794_a_at) / Fold change /veh IL23R (11748794_a_at) / RFU TNFAIP8L3 (11732012_x_at) / Fold change /veh TNFAIP8L3 (11732012_x_at) / RFU MBOAT4 (11741988_at) / Fold change /veh MBOAT4 (11741988_at) / RFU 11764193_at / Fold change /veh 11764193_at / RFU TMEM53 (11763286_at) / Fold change /veh TMEM53 (11763286_at) / RFU MAGEB2 (11727129_at) / Fold change /veh MAGEB2 (11727129_at) / RFU TMEM200A (11744735_a_at) / Fold change /veh TMEM200A (11744735_a_at) / RFU CCDC152 (11751479_a_at) / Fold change /veh CCDC152 (11751479_a_at) / RFU FAM211A (11726209_a_at) / Fold change /veh FAM211A (11726209_a_at) / RFU RGS16 (11746705_a_at) / Fold change /veh RGS16 (11746705_a_at) / RFU VCAN (11755009_s_at) / Fold change /veh VCAN (11755009_s_at) / RFU RHOB (11743442_s_at) / Fold change /veh RHOB (11743442_s_at) / RFU RGS16 (11720943_a_at) / Fold change /veh RGS16 (11720943_a_at) / RFU RGS16 (11720944_at) / Fold change /veh RGS16 (11720944_at) / RFU, VPS4B / Fold change vs veh, VPS4B / RFU, CREB1 / Fold change vs veh, CREB1 / RFU, DNAJC13 / Fold change vs veh, DNAJC13 / RFU, GNAQ / Fold change vs veh, GNAQ / RFU, CDK5R1 / Fold change vs veh, CDK5R1 / RFU, ZRANB3 / Fold change vs veh, ZRANB3 / RFU, CUL4A / Fold change vs veh, CUL4A / RFU, CCNY / Fold change vs veh, CCNY / RFU, UFL1 / Fold change vs veh, UFL1 / RFU, COG3 / Fold change vs veh, COG3 / RFU, DIAPH2 / Fold change vs veh, DIAPH2 / RFU, SKA2 / Fold change vs veh, SKA2 / RFU, AFF3 / Fold change vs veh, AFF3 / RFU, LMF1 / Fold change vs veh, LMF1 / RFU, IPO11 / Fold change vs veh, IPO11 / RFU, DFFB / Fold change vs veh, DFFB / RFU, FOXP1 / Fold change vs veh, FOXP1 / RFU, CARD8 / Fold change vs veh, CARD8 / RFU, STRN3 / Fold change vs veh, STRN3 / RFU, ADK / Fold change vs veh, ADK / RFU, RASSF2 / Fold change vs veh, RASSF2 / RFU, WIPF1 / Fold change vs veh, WIPF1 / RFU, LARP1B / Fold change vs veh, LARP1B / RFU, RASA1 / Fold change vs veh, RASA1 / RFU, RB1 / Fold change vs veh, RB1 / RFU, PPFIA1 / Fold change vs veh, PPFIA1 / RFU, MAT2A / Fold change vs veh, MAT2A / RFU, CCT5 / Fold change vs veh, CCT5 / RFU, WDR92 / Fold change vs veh, WDR92 / RFU, CUX1 / Fold change vs veh, CUX1 / RFU, TTC7A / Fold change vs veh, TTC7A / RFU, TMEM135 / Fold change vs veh, TMEM135 / RFU, DEPTOR / Fold change vs veh, DEPTOR / RFU, CPM / Fold change vs veh, CPM / RFU, DNAJB6 / Fold change vs veh, DNAJB6 / RFU, CACNA2D3 / Fold change vs veh, CACNA2D3 / RFU, DTX4 / Fold change vs veh, DTX4 / RFU, TFCP2 / Fold change vs veh, TFCP2 / RFU, GMCL1 /// GMCL1P1 / Fold change vs veh, GMCL1 /// GMCL1P1 / RFU, AEBP2 / Fold change vs veh, AEBP2 / RFU, SNHG1 /// SNORD22 /// SNORD25 /// SNORD26 /// SNORD27 /// SNORD28 /// SNORD29 /// SNORD31 / Fold change vs veh, SNHG1 /// SNORD22 /// SNORD25 /// SNORD26 /// SNORD27 /// SNORD28 /// SNORD29 /// SNORD31 / Fold change (Aza/veh), C12orf56 (ProbeSet 11735607_a_at) / Fold change (ACY-1035/veh), C12orf56 (ProbeSet 11735607_a_at) / Fold change (Aza/veh), FGFR1OP (ProbeSet 11751329_s_at) / Fold change (ACY-1035/veh), FGFR1OP (ProbeSet 11751329_s_at) / Fold change (Aza/veh), VPS36 (ProbeSet 11739960_a_at) / Fold change (ACY-1035/veh), VPS36 (ProbeSet 11739960_a_at) / RFU SYPL1 (11715823_x_at) / Fold change /veh SYPL1 (11715823_x_at) / RFU IGFBP7 (11715501_s_at) / Fold change /veh IGFBP7 (11715501_s_at) / RFU REEP3 (11722064_at) / Fold change /veh REEP3 (11722064_at) / RFU IGLL1 (11728026_x_at) / Fold change /veh IGLL1 (11728026_x_at): dose or concentration left out as unconfirmed. Particulars: MV-4-11 cells, 48 hours.

As for `Nc1ccc(-c2cccs2)cc1NC(=O)c1ccc2c(c1)cc(C1CC1)n2CCN1CCOCC1` [ACY-1035], the “RFU ZSCAN30 (11745921_a_at)” value is 7.88 RFU.
